The source of these data is publication PMC10641814 (Journal of Medicinal Chemistry, 2023).

Data set [1] is described as follows: Chemical stability (hydrolysis, oxidation). To be noted: acidic and basic hydrolysis (0.5 M HCl and 0.5 M NaOH at 60 °C) and oxidizing conditions (10% H2O2 at room temperature).
The target of data set [2] is serotonin transporter SERT (Homo sapiens, UniProt P31645). Kind of data set: SERT binding ([3H]-imipramine), Eurofins. From the text: (§1) The results were expressed as the %
(§2) www.eurofinsdiscovery.com.

In another data set the target is 5-HT2BR (Homo sapiens, UniProt P41595). Kind of data set: 5-HT2BR binding ([3H]-mesulergine), Eurofins.
Text: as §1, §2

The subject of data set [3] is oAβ25–35-induced memory deficits in rats. Kind of data set: oAβ25–35-induced memory deficits in T-maze test in rats. Type of data set: in vivo, rat. How it is done:
For the AD model, adult male Sprague–Dawley rats (Janvier Lab., France) weighing 260–280 g (8 weeks) at the beginning of the experiments were housed 1 week before experiments in a standard animal facility of the University of Montpellier (CECEMA, registration number E34-172-23) (12/12 h light/dark cycle with lights on at 07:00; 21 ± 1 °C, food and water ad libitum). All experiments, including sacrifices, were performed in conscious rats between 09:00 and 12:00, during the diurnal period of the circadian rhythm. Male has been preferred over female because the latter may present a confounding factor of the estrous cycle, a parameter that needs to be systematically controlled. Animal procedures were conducted in strict adherence to the European Union Directive of 2010 (2010/63/EU). The National French Animal Welfare Committee and the local committee at the University of Montpellier approved all protocols (authorization: CEEA-LR-12160). All efforts were made to minimize the number of animals used, potential pain, suffering, and distress.
As previously detailed,[37],[64] to induce the acute model of AD (oAβ25–35 model), rats were divided into three groups. One group had no surgery (Naive group), a second set of animals received an intracerebroventricular (icv) injection of incubated scrambled peptide (negative control groups—10 μg/rat—Sc), and a third set received an icv injection of oAβ25–35 (AD groups—10 μg/rat—Aβ). The animals were anesthetized with an intraperitoneal (ip) injection of a mixture of ketamine and xylazine (80 and 10 mg/kg b.w., respectively). Scrambled peptide and oAβ25–35 were injected directly into the lateral ventricles at a rate of 2 μL/min using a David-Kopf stereotaxic apparatus (coordinates of injection: AP −1 mm, L ±1.5 mm, DV −3.5 mm).
1—A curative approach: This treatment was started 1 week after the induction of amyloid toxicity (icv injection of oAβ25–35) and consisted of 2 ip injections (1.5 mg/kg per injection) per day for 1 week. On day 14, animals were subjected to a behavioral memory test (T-maze) and sacrificed on day 15 by decapitation.
2—A preventive approach: This treatment was started at the same time as the induction of amyloid toxicity and consisted of implanting ip, and during the same anesthetic procedure necessary for the icv injection of oAβ25–35, an osmotic pump (Alzet-EML2, Charles-River, France) which continuously delivered the molecules for 1 week at the dose of 3 mg/kg/day. On day 7, animals were submitted to a behavioral memory test (T-maze) and sacrificed on day 8 by decapitation.
As previously reported, the T-maze test was used to rapidly assess cognitive ability in rats, especially the short-term memory deficits, when performed in two successive sessions.[37],[38],[64],[65] The T-maze consisted of two short arms (A and B), extending from a longer alley (C) and enclosed with high walls. The test involved two trials, separated by 1 h. During the training session, one short arm (B) was closed. Rats were placed at the end of the long alley, allowed to visit the maze for 10 min, and then returned to their home cage. […] The number of visits and time spent in each arm were measured. The results were expressed as the ratio of the time spent in the initially closed novel arm, over the time spent in the previous arm, and as a ratio of the number of entries into the novel arm over the familiar one. […]

For another data set, the target named is T1, α2AR (Homo sapiens, UniProt P08913).
T1 sequence (P08913 1-465): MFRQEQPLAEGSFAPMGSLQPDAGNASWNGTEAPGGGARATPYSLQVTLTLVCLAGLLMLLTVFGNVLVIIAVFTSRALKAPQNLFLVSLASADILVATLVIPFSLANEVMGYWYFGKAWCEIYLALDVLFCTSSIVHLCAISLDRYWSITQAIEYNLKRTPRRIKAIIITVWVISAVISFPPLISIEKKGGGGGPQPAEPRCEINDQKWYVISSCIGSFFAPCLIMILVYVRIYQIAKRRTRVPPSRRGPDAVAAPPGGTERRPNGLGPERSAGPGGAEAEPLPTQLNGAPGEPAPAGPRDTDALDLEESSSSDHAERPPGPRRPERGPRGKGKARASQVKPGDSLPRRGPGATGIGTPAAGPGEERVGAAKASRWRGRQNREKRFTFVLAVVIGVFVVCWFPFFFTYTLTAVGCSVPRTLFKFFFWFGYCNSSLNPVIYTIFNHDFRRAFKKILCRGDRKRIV
Kind of data set: Adrenergic α2AR binding ([3H]-RX821002), Eurofins. The note with it: read-out: adrenergic alfa2A % inhibition at 1 microM.
Text: as §1, §2

The target of another data set is T2, h5-HT3R (Homo sapiens, UniProt P46098).
T2 construct: expressed in transfected cells; host or cells: CHO
T2 sequence (P46098 24-478): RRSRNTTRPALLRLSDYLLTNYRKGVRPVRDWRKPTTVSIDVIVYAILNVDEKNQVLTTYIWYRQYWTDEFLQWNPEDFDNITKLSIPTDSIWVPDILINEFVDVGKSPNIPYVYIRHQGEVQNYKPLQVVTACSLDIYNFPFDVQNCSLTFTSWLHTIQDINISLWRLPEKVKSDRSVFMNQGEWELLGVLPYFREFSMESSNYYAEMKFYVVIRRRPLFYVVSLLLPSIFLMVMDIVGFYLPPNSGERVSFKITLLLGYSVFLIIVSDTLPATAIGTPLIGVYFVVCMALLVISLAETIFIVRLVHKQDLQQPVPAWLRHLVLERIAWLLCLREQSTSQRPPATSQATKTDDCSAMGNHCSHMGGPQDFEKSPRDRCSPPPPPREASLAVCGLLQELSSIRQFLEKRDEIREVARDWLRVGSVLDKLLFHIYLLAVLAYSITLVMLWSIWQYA
Description: 5-HT3R radioligand binding ([3H]-BRL 43694) in CHO cells.

In another data set the target is T3, human 5-HT7b (Homo sapiens, UniProt P34969).
T3 construct: expressed in transfected cells
Kind of data set: 5-HT7R binding ([3H]-5-CT), HEK293. The note with it: read-out: serotonin 5-HT7 % inhibition at 1 microM. How it is done: 3. Selectivity screen of PZ-1922
For membrane preparation,
EDTA and 1 mM dithiothreitol.
The composition of the assay buffers was
reader (PerkinElmer, USA).
as §1, §2

Chain of 5-HT2BR (P41595 whole entry): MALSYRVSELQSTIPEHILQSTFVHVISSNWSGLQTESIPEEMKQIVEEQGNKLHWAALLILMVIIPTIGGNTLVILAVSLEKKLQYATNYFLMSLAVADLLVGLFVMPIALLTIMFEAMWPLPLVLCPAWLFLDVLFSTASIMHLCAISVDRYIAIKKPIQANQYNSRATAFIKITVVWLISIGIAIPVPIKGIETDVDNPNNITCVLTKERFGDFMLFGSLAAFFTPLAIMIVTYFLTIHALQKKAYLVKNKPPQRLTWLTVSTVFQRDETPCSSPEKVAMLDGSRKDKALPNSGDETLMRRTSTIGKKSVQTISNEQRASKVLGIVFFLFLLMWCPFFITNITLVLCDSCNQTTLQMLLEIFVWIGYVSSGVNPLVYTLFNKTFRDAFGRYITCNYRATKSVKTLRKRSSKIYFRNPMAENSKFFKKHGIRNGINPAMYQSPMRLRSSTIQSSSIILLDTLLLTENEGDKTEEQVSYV
T3 sequence (P34969 1-432 limits assumed): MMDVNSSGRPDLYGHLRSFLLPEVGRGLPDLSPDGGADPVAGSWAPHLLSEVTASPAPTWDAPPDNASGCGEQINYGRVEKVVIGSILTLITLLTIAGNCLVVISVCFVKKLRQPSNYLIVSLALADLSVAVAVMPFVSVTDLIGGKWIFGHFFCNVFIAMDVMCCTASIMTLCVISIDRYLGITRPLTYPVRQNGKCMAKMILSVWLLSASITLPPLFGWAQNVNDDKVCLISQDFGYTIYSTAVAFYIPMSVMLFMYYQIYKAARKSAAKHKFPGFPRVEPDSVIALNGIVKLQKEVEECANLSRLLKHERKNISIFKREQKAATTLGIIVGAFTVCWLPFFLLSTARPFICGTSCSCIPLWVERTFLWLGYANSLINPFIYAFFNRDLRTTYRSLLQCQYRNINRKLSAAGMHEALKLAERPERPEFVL
Chain of serotonin transporter SERT (P31645 whole entry): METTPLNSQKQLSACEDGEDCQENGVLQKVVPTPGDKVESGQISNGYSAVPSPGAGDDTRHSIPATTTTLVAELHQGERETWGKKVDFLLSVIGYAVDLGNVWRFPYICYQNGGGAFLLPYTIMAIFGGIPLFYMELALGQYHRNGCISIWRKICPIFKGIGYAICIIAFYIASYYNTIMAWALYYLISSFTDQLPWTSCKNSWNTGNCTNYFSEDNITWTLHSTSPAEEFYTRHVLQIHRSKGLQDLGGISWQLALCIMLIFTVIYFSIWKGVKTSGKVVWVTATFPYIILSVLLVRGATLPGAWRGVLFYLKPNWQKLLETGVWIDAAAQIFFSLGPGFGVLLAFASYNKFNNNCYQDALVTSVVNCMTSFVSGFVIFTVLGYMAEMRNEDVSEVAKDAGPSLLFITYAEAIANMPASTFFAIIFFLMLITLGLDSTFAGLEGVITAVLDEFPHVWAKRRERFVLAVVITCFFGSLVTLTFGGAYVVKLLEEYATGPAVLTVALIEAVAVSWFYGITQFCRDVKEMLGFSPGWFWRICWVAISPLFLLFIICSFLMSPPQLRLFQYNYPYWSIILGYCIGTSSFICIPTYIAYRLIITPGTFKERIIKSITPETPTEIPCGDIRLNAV

The term inhibition denotes the drop in the measured response relative to a control, in per cent. The term Ki denotes the equilibrium dissociation constant of an inhibitor or competing ligand from its target. A higher Ki goes with weaker binding. The term solubility denotes how much of the substance goes into solution per volume. A higher solubility goes with much dissolved substance. With `Cl.Clc1cccc(Cn2ccc3c(N4CCNCC4)nc4ccccc4c32)c1` [PZ-1922, 1-(3-Chlorobenzyl)-4-(piperazin-1-yl)-1H-pyrrolo[3,2-c]quinoline Hydrochloride], the chemical stability result in data set [1] is recorded as “chemically stable”. Moreover, the inhibition at 1 µM in data set [2] was 1.8%; at 5-HT2BR (read-out: serotonin 5-HT2B % inhibition at 1 microM), 17%; at α2AR, 22%; on h5-HT3R (read-out: inhibition of 5-HT3R binding in selectivity screen), greater than 50%; at human 5-HT7b it was 2%. In addition, at 5-HT2BR (binding, 1 μM), the “effect on 5-HT2BR (cardiac safety, valvulopathy)” value is “lack of effect”. For the same compound, the “effect on oAβ25–35-induced memory deficits in T-maze, curative treatment” value in data set [3] (1.5 mg/kg ip twice a day for 7 days, started 1 week after icv oAβ25–35) is reported as “effectively reversed the memory deficits”. Moreover, in data set [3] (3 mg/kg/day by ip osmotic pump for 1 week, concomitant with icv oAβ25–35), the “effect on oAβ25–35-induced memory deficits in T-maze, preventive treatment” value is given as “prevented the emergence of cognitive deficits”. Moreover, in data set [3] (preventive treatment), the “In vivo effective dose, T maze test in rats after oAB administration, preventive treatment” value turned out to be 3 mg/kg. Moreover, on h5-HT3R (0.5 nM [3H]-BRL 43694, CHO cells expressing h5-HT3R, two independent experiments), the Ki was 0.45 nM. In the data set “Solubility in water”, this compound showed a solubility of 325 mg/mL.
